Laboratory results from patent US5225436A, “Aryl substituted naphthalene derivatives” (Schering Corporation, priority 1991, dated 1993).
Like-named read-outs stand apart in the source and are kept apart here.

Molecular target: T1, 5-lipoxygenase (Homo sapiens, UniProt P09917)
T1 construct: Human polymorphonuclear leukocytes (neutrophils) were obtained from normal healthy volunteers; endogenous in cells; host or cells: human blood neutrophils from healthy volunteers
T1 sequence (P09917 1-674): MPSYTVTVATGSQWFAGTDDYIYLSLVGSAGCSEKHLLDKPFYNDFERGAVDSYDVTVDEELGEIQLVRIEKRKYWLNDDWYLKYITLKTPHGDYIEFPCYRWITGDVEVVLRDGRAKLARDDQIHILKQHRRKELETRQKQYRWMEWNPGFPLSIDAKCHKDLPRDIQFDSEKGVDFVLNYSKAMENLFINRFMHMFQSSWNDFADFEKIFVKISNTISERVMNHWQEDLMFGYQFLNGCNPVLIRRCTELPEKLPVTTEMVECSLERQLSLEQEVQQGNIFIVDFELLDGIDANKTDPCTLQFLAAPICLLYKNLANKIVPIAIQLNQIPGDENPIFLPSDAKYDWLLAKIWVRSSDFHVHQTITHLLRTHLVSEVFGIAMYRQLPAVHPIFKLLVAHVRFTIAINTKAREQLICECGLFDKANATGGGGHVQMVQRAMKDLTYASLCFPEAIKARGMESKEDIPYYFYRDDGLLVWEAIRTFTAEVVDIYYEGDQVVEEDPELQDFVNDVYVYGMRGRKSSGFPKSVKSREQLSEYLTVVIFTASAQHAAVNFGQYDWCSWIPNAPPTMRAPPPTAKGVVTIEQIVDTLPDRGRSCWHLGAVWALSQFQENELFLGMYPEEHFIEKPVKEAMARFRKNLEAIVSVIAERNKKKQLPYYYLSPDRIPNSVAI
Assay: 5-Lipoxygenase assay with human neutrophils
Assay type: cell-based
Settings: 5 min, Human PMN; for inhibition at 15 µM: dose 15 μm (μM)
Method: Human polymorphonuclear leukocytes (neutrophils) were obtained from normal healthy volunteers by venipuncture and collected with heparin anticoagulant. Neutrophils were isolated by Dextran/Ficol sedimentation as described (Billah et al., J. Biol. Chem. 260, 6899-6906 (1985)). In brief, 30 ml of blood was mixed with 5 ml of dextran (Sigma) solution and kept at 37° C. for 30 min. The upper white cell-rich layer was removed and 10 ml was layered on 9 ml of Ficol-Paque solution (Pharmacia) and centrifuged at 280 xg for 10 min. at 5° C. The supernatant was removed and the neutrophil pellet was resuspended in HEPES buffer containing 25 mM N-2-hydroxyethylpiperazine-N^1 -2-ethanesulfonic acid HEPES, 125 mM NaCl, 2.5 mM KCl, 0.7 mM MgCl2, […] 10 mM glucose at pH 7.4. The red cells in the suspension were lysed by hypotonic shock. The neutrophils were washed by centrifugation in HEPES buffer two times and finally resuspended at a concentration of 20×10^6 cells/ml in the presence of 1 mM CaCl2.
Neutrophils (0.2 ml of suspension) were preincubated with dimethylsulfoxide (DMSO) vehicle with or without test compound (1 ul) for 4 minutes then incubated for 5 minutes with [^14 C] arachidonic acid (Amersham, 59 Ci/mole) at a 9 uM final concentration, and the calcium ionophore A23187 (Calbiochem) at a 1 uM final concentration. These stimulants were added in 10 ul of water:ethanol (9:1). The reaction was stopped by addition of methanol (0.4 ml), and cellular debris was removed by centrifugation. Aliquots (100 ul) of the incubations were run on a Waters two pump HPLC system fitted with a DuPont Zorbax ODS, 5u, […] Reliance Cartridge column and C18 "Guard Pak". The column was initially eluted at 2 ml/min with 80% of the mixture water:methanol:acetic acid (46:54:0.08) containing 1 mM EDTA adjusted to pH 6.0 with ammonium hydroxide (Pump A) and 20% methanol (Pump B). At 10 minutes, a linear gradient to reach 100% methanol (Pump B) at 27 minutes was established. Between 27 and 28 minutes, methanol was exchanged for the initial eluting solvent and by 35 minutes the column had been reequilibrated for the next sample. The effluent was analyzed by a continuous flow radioactivity monitor (model ROMONA-D) interfaced with a Hewlett Packard Lab Automation System for quantitation of radioactive products. These were predominantly leukotriene B4 (LTB4) which eluted at 7 minutes, and 5-hydroxyeicosatetraenoic acid (5-HETE) which eluted at 20 minutes.

Row | Compound | inhibition at 15 µM (read-out: % Inhibition 5-HETE) [%] | inhibition at 15 µM (read-out: % Inhibition LTB) [%] | inhibition at 5 µM (read-out: % Inhibition 5-HETE) [%] | inhibition at 5 µM (read-out: % Inhibition LTB) [%]
1 | COc1cc(OC)c2c(c1)C(C)(C)C(c1ccc(OC)c(OC)c1)CC2=NN (stereo not shown) | 35 |  |  | 
2 | C=CCC1C(=O)c2c(OC)cc(OC)cc2C(C)(C)C1c1ccc(OC)c(OC)c1 (stereo not shown) |  | 0 |  | 
3 | COc1cc(OC)c2c(c1)C(C)(C)C(c1ccc(OC)c(OC)c1)CCO2 (stereo not shown) [drawing 106 [X=O; R3/R4=H,H; J=H; L,P=OCH3]] | 39 | 28 |  | 
4 | CC1(C)c2cc(O)cc(O)c2C(=O)CC1c1cccc(O)c1 (stereo not shown) | 23 |  |  | 
5 | COc1cc(OC)c2c(c1)C(C)(C)C(c1ccc(OC)c(OC)c1)C(C)C(=O)O2 (stereo not shown) [drawing 106 [X=O; R3/R4=O; J=CH3; L,P=OCH3], 4-(3,4-dimethoxyphenyl)-4,5-dihydro-7,9-dimethoxy-3,5,5-trimethyl-1-benzoxepin-2(3H)-one] | 20 | 2 |  | 
6 | COc1cc(O)c2c(c1)C(C)(C)C(c1cc(O)cc(O)c1)CC2=O (stereo not shown) | 75 |  |  | 
7 | CC1(C)c2cc(O)cc(O)c2C(=O)CCC1c1ccc(O)c(O)c1 (stereo not shown) [drawing 107 [X=O; db no; W,J,F=H; E,G,L,P=OH]] | 88 |  |  | 
8 | COc1ccc(C2CC(=O)c3c(OC)cccc3C2(C)C)cc1OC (stereo not shown) | 23 |  |  | 
9 | COc1cc(O)c2c(c1)C(C)(C)C(c1ccc(OC)c(OC)c1)CC2=O (stereo not shown) | 0 |  |  | 
10 | COc1cc(OC)cc(C2=CC(=O)c3c(cc(OC)c(OC)c3OC)C2(C)C)c1 [drawing 101 [R3/R4=O; E,G,P,L,K=OCH3; db yes]] | 7 | 1 |  | 
11 | CC1(C)c2cc(O)cc(O)c2C(=NO)CC1c1cc(O)cc(O)c1 (stereo not shown) | 57 |  |  | 
12 | COc1cc(OC)c2c(c1)C(C)(C)CC(c1ccccc1)C2=O (stereo not shown) [drawing 102 [A=C6H5; B=H]] | 64 |  |  | 

The next lines start with the values.

Row | inhibition at 15 µM (read-out: % Inhibition 5-HETE) [%] | inhibition at 15 µM (read-out: % Inhibition LTB) [%] | inhibition at 5 µM (read-out: % Inhibition 5-HETE) [%] | inhibition at 5 µM (read-out: % Inhibition LTB) [%] | Compound
13 | 69 | 89 |  |  | CCOC(=O)C1C(=O)c2c(OC)cc(OC)cc2C(C)(C)C1c1ccc(OC)c(OC)c1 (stereo not shown)
14 | 11 |  |  |  | CC1(C)C(c2cc(O)cc(O)c2)=CC(=O)c2c(O)cc(O)cc21
15 | 90 | 96 | 13 | 46 | CC1=C(c2ccc(O)c(O)c2)C(C)(C)c2cc(O)cc(O)c2C1=O
16 | 61 | 22 |  |  | COc1ccc(C2CC(=O)Cc3c(OC)cccc3C2(C)C)cc1OC (stereo not shown) [8-(3,4-dimethoxyphenyl)-9,9-dimethyl-4-methoxy-5,7,8,9-tetrahydro-6H-benzocyclohepten-6-one]
17 | 55 | 47 |  |  | CON=C1CC(c2ccc(OC)c(OC)c2)C(C)(C)c2cc(OC)cc(OC)c21 (stereo not shown)
18 | 48 |  |  |  | COc1cc(OC)c2c(c1)C(C)(C)C(c1ccc(OC)c(OC)c1)C=CC2=O (stereo not shown)
19 | 79 |  |  |  | COc1ccc2c(c1)C(C)(C)C(c1ccc(OC)c(OC)c1)=CC2=O
20 | 36 |  |  |  | COc1cc(OC)c2c(c1)C(C)(C)C(c1ccc(OC)c(OC)c1)CC2Sc1ccc(Cl)cc1 (stereo not shown)
21 | 88 |  |  |  | COc1ccc(CC2(Cc3ccc(OC)cc3)CC(C)(C)c3cc(OC)cc(OC)c3C2=O)cc1 [drawing 102 [A=drawing 104; B=drawing 105]]
22 | 0 |  |  |  | COc1cc(OC)c2c(c1)C(C)(C)C(c1ccc(OC)c(OC)c1)CC2=NOC(=O)C(C)(C)C (stereo not shown)
23 | 28 |  |  |  | COc1ccc(C2=CC(=O)c3c(OC)cccc3C2(C)C)cc1OC
24 | 13 | 18 |  |  | COc1cc(OC)c2c(c1)C(C)(C)C(c1ccc(OC)c(OC)c1)CC2=NOC(C)=O (stereo not shown)
25 | 0 | 0 |  |  | COc1cc(OC)c2c(c1)C(C)(C)C(c1ccc(OC)c(OC)c1)CC2=NNC(C)=O (stereo not shown)
26 | 61 |  |  |  | COc1cc(OC)c2c(c1)C(C)(C)C(c1ccc(OC)c(OC)c1)CC(Sc1ccccc1)C2=O (stereo not shown)
27 | 22 | 38 |  |  | COc1cc(OC)c2c(c1)C(C)(C)C(c1ccc(OC)c(OC)c1)CC2=NNC(=O)c1ccccc1 (stereo not shown)
28 | 86 |  |  |  | COc1ccc(CC2CC(C)(C)c3cc(OC)cc(OC)c3C2=O)cc1 (stereo not shown) [drawing 102 [A=drawing 103; B=H]]
